This note sets out measurements from patent publication US12622917B2, “High-activity Wnt pathway inhibitor compound” (ADLAI NORTYE BIOPHARMA CO., LTD., priority 2020, dated 2026).

In assay [1] the test system is Colo205. Put plainly: Proliferation inhibition, Wnt mutant cell line Colo205. It is filed as cell-based. The following applies: Colo205, Wnt pathway-dependent, 96 hours, read-out: Antiproliferative IC50 Colo205. In outline: (§1)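 IC50 for growth inhibition came from a 96-hour incubation with serially diluted compound (3-fold, top 20 uM final), with cells seeded at 1000 per well the day before and read by a Promega viability assay.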

Assay [2] relates to Colo205-LUC-TCF/LEF M1 reporter cell line (Wnt pathway). Put plainly: Colo205-LUC-TCF/LEF M1 reporter gene (luciferase) inhibition. The class given is cell-based. Particulars: 4 hours incubation, luciferase readout. In outline:
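Luminescent readout of TCF/LEF-regulated luciferase after a 4 h, 37° C compound exposure in a stable Colo205 reporter clone (10,000 cells/well). Serial 3-fold dilutions started at 20 uM; IC50 derived using DMSO-treated cells and no-cell wells as controls.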

Assay [3] deals with NCI-H929. In words: Proliferation inhibition, NCI-H929 cell line. It is filed as cell-based, human. The following applies: NCI-H929 cells, 96 hours culture, cell viability detection, read-out: Antiproliferative IC50 NCI-H929. An outline of the steps: (§2)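 Wnt-dependent proliferation in HepG2 and NCI-H929 cells, seeded at 4000 cells/well and pre-incubated 20-24 h at 37 °C. Cells were then exposed for 96 h to 3-fold serial dilutions (top final concentration 20 uM), and viability was read by signal intensity. IC50 was referenced to DMSO-only wells and cell-free wells.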

Assay [4] has as its system RKO. In words: Proliferation inhibition, non-Wnt mutant control cell line RKO. Particulars: Wnt-independent control cell line, 96 hours, read-out: Antiproliferative IC50 RKO. The class given is cell-based. An outline of the steps: as §1
Assay [5] relates to Hela. Put plainly: Proliferation inhibition, non-Wnt mutant control cell line Hela. The class given is cell-based. The following applies: Wnt-independent control cell line, 96 hours, read-out: Antiproliferative IC50 Hela. In outline:
as §1

Assay [6] relates to human myeloma cell NCI-H929 SCID xenograft. Put plainly: Tumor growth inhibition, NCI-H929 mouse xenograft model. The class given is in vivo. Particulars: 30 mg/kg, PO, QD x 21. The procedure:
In this study, human myeloma cell NCI-H929 SCID xenograft model was used to evaluate the anti-tumor activity of compound 11 in vivo.
Female SCID were subcutaneously inoculated with human myeloma cells NCI-H929 to establish the NCI-H929 SCID xenograft model. After the tumor grew to an average tumor volume of about 80 mm^3, the tumor-bearing mice were randomly divided into two groups according to the tumor volume: the solvent-treated control group and the 30 mg/kg compound 11 group. Compound 11 was administered orally, once a day, and the administration cycle was 21 days. The tumor volume was measured every other day, and the body weight and tumor volume were measured on Day 21 (Table 4 and FIG. 1).

For assay [7], the system named is DU4475. In words: Proliferation inhibition, Wnt mutant cell line DU4475. The class given is cell-based. Particulars: DU4475, Wnt pathway-dependent, 96 hours, read-out: Antiproliferative IC50 DU4475. In outline: as §1
Assay [8] deals with HepG2. Put plainly: Proliferation inhibition, HepG2 cell line. The class given is cell-based. The following applies: Homo sapiens; HepG2 cells, 96 hours culture, cell viability detection; read-out: Antiproliferative IC50 HepG2. An outline of the steps:
as §2

Read-outs that look alike come from different tables or passages of the source.

Turning to “(S)-4,5-dimethyl-2-(((6-((6-(trifluoromethyl)pyridin-3-yl)oxy)pyridin-3-yl)methyl)amino)-4,5,9,10-tetrahydro-6H,8H-pyrido[3,2,1-de]pteridin-6-one [Example 11]”, the IC50 in assay [1] was 32 nM; in assay [2], 61 nM; in assay [3] it was 55 nM; in assay [4], > 10000 nM; in assay [5] it was > 10000 nM; in assay [7], 37 nM. Further, in assay [6], the “% T/CRTV Day 21” value came out at 1.59%. The “% TGITW Day 21” value in assay [6] was found to be 98.86%. In addition, the “% TGItv Day 21” value in assay [6] was 98.42%. For the same compound, the “RTV Day 21” value in assay [6] worked out at 0.33. The “Tumor weight Day 21” value in assay [6] is 0.023 g.

Regarding `CO[C@H](C)[C@H]1C(=O)N2CCCc3nc(NCc4ccc(Oc5ccc(C(F)(F)F)nc5)nc4)nc(c32)N1C` [114 (W243), (S)-5-((R)-1-methoxyethyl)-4-methyl-2-(((6-((6-(trifluoromethyl)pyridin-3-yl)oxo)pyridin-3-yl)methyl)amino)-4,5,9,10-tetrahydro-6H,8H-pyrido[3,2,1-de]pteridin-6-one], the IC50 was 23 nM in assay [1] (Homo sapiens, COLO 205); 27 nM in assay [2]; 60 nM in assay [3] (Homo sapiens); > 10000 nM in assay [4] (Homo sapiens); > 10000 nM in assay [5] (Homo sapiens); 37 nM in assay [8]. The IC50 in assay [7] (Homo sapiens, DU-4475) is 20 nM.

A word on the IC50: it is the midpoint of a concentration-inhibition curve.
